Results from PMC6588697, “Lugdunin amplifies innate immune responses in the skin in synergy with host- and microbiota-derived factors” (Nature Communications, 2019).
No end group written: not given here.

System: S. aureus USA300
Experiment: Antimicrobial testing (bactericidal, CFU) against S. aureus USA300
Type: cell-based, Staphylococcus aureus
Details: for S. aureus USA300 CFU normalized to untreated control (1.00): 3 h, mean of at least three experiments
Method: Fig. 5 Synergistic action of lugdunin and human antimicrobial peptides (AMPs) kills methicillin-resistant S. aureus (MRSA). a, c Logarithmically grown (3 × 10^6) S. aureus were incubated with indicated combinations of lugdunin and human AMPs in phosphate-buffered saline (PBS) containing 0.1% tryptic soy broth (TSB) at 37 °C orbital shaking (white bar, untreated; dark gray bars, AMP treatment; middle gray bars, lugdunin treatment; light gray bars, AMP and lugdunin combination treatment). After 3 h of incubation, several dilutions of the bacterial suspensions were plated onto TSB agar plates and incubated overnight at 37 °C. The next day S. aureus colony-forming units (CFUs) were counted. Each experiment was performed in triplicates. Data represent the percentage of CFU of at least three independent experiments normalized to the untreated control ± s.e.m. Significant differences to control treatments were analyzed by ordinary one-way analysis of variance (ANOVA) followed by Dunnett’s multiple comparisons test (*P < 0.05; **P < 0.01; ***P < 0.001; ****P < 0.0001). b Combination indices (CIs) were calculated using CompuSyn (ComboSyn Inc.) and indicated in median effect plots as a function of the bacteria fractions affected by the combinatorial peptide treatment. CI values of 1 indicate additive effects, whereas values <1 and >1 indicate synergistic and antagonistic effects, respectively. Source data are provided as a Source Data file TEXT PRINTED IN THE PICTURE: (a) DCD-1: S. aureus USA300, Lugdunin μM 0: 1.00 (DCD-1 μM: 0); S. aureus USA300, Lugdunin μM 1: 1.08 (DCD-1 μM: 0); S. aureus USA300, Lugdunin μM 2: 1.11 (DCD-1 μM: 0); S. aureus USA300, Lugdunin μM 3: 0.97 (DCD-1 μM: 0); S. aureus USA300, Lugdunin μM 0: 1.06 (DCD-1 μM: 1); S. aureus USA300, Lugdunin μM 1: 0.91 (DCD-1 μM: 1); S. aureus USA300, Lugdunin μM 2: 0.85 (DCD-1 μM: 1); S. aureus USA300, Lugdunin μM 3: 0.60 (DCD-1 μM: 1); S. aureus USA300, Lugdunin μM 0: 1.19 (DCD-1 μM: 2); S. aureus USA300, Lugdunin μM 1: 0.84 (DCD-1 μM: 2); S. aureus USA300, Lugdunin μM 2: 0.43 (DCD-1 μM: 2); S. aureus USA300, Lugdunin μM 3: 0.21 (DCD-1 μM: 2) | (a) DCD-1L: S. aureus USA300, Lugdunin μM 0: 1.00 (DCD-1L μM: 0); S. aureus USA300, Lugdunin μM 1: 1.08 (DCD-1L μM: 0); S. aureus USA300, Lugdunin μM 2: 1.11 (DCD-1L μM: 0); S. aureus USA300, Lugdunin μM 3: 0.97 (DCD-1L μM: 0); S. aureus USA300, Lugdunin μM 0: 1.13 (DCD-1L μM: 1); S. aureus USA300, Lugdunin μM 1: 0.98 (DCD-1L μM: 1); S. aureus USA300, Lugdunin μM 2: 0.68 (DCD-1L μM: 1); S. aureus USA300, Lugdunin μM 3: 0.07 (DCD-1L μM: 1); S. aureus USA300, Lugdunin μM 0: 1.37 (DCD-1L μM: 2); S. aureus USA300, Lugdunin μM 1: 0.60 (DCD-1L μM: 2); S. aureus USA300, Lugdunin μM 2: 0.42 (DCD-1L μM: 2); S. aureus USA300, Lugdunin μM 3: 0.02 (DCD-1L μM: 2) | (a) IL-37: S. aureus USA300, Lugdunin μM 0: 1.00 (IL-37 μM: 0); S. aureus USA300, Lugdunin μM 1: 1.08 (IL-37 μM: 0); S. aureus USA300, Lugdunin μM 2: 1.11 (IL-37 μM: 0); S. aureus USA300, Lugdunin μM 3: 0.97 (IL-37 μM: 0); S. aureus USA300, Lugdunin μM 0: 1.86 (IL-37 μM: 1); S. aureus USA300, Lugdunin μM 1: 1.27 (IL-37 μM: 1); S. aureus USA300, Lugdunin μM 2: 1.23 (IL-37 μM: 1); S. aureus USA300, Lugdunin μM 3: 1.90 (IL-37 μM: 1); S. aureus USA300, Lugdunin μM 0: 2.49 (IL-37 μM: 2); S. aureus USA300, Lugdunin μM 1: 1.28 (IL-37 μM: 2); S. aureus USA300, Lugdunin μM 2: 0.89 (IL-37 μM: 2); S. aureus USA300, Lugdunin μM 3: 0.38 (IL-37 μM: 2) DOUBTS OF THE COPYIST ABOUT THIS PICTURE: Panel a, third matrix: the row label reads IL-37, but it may be LL-37, as printed in panels b and c. / Panel a: the picture prints no measure for the matrix numbers, only the colour scale 'Growth – Killing, S. aureus USA300'. Each cell is a combination of Lugdunin (column, μM) with the peptide (row, μM). / Panel a: rows and columns at 0 μM are a single agent or the untreated control. […]

[1] = single peptide 0.4 µM, PBS + 0.1% TSB, 37 °C

Substance	S. aureus USA300 CFU normalized to untreated control (1.00) [1]	S. aureus USA300 CFU normalized to untreated control (1.00) (single peptide 0.6 µM)	S. aureus USA300 CFU normalized to untreated control (1.00) (single peptide 0.8 µM)	S. aureus USA300 CFU normalized to untreated control (1.00) (single peptide 1 µM)	S. aureus USA300 CFU normalized to untreated control (1.00) (single peptide 2 µM)	antimicrobial activity on co-incubation with human AMPs (in words) (S. aureus USA300, text to Supp Figs 5, 6)
IASKFLCTPGCAKTGSFNSYCC (also: bicyclic or more (positions not given here)) [Gallidermin, bacteriocin isolated from Staphylococcus gallinarum]	0,84	0,91	0,74	–	–	–
ITSISLCTPGCKTGALMGCNMKTATCHCSIHVSK (not fully specified (bridges); also: lanthionine rings, places not given here) [Nisin, bacteriocin of Lactococcus lactis, purchased from Sigma]	1,31	1,49	1,49	–	–	–
LLGDFFRKSKEKIGKEFKRIVQRIKDFLRNLVPRTES [LL-37, human cathelicidin AMP]	–	–	–	1,86	2,49	–
Lugdunin	–	–	–	1,08	1,11	–
MEAVKEKNELFDLDVKVNAKESNDSGAEPRIASKFLCTPGCAKTGSFNSYCC [Pro-Gallidermin, non-bactericidal pro-form of gallidermin]	1,34	1,61	1,30	–	–	did not lead to antimicrobial activity
SSLLEKGLDGAKKAVGGLGKLGKDAVEDLESVGKGAVHDVKDVLDSV [DCD-1, dermcidin-derived human AMP of eccrine sweat glands]	–	–	–	1,06	1,19	–
SSLLEKGLDGAKKAVGGLGKLGKDAVEDLESVGKGAVHDVKDVLDSVL [DCD-1L, dermcidin-derived human AMP of eccrine sweat glands]	–	–	–	1,13	–	–
